Results reported in patent US12577206B2 (BRISTOL-MYERS SQUIBB COMPANY, priority 2020, dated 2026).

How the values were obtained:
[1] = biological target: T1, human FPR2 (Homo sapiens, UniProt P25090); assay: FPR2 cyclic adenosine monophosphate (cAMP) assay; assay type: cell-based; conditions: CHO cells overexpressing human FPR2; forskolin 5 μM; inhibition of cAMP production; HTRF; read-out: hFPR2 cAMP2 EC50
T1 sequence (P25090 1-351): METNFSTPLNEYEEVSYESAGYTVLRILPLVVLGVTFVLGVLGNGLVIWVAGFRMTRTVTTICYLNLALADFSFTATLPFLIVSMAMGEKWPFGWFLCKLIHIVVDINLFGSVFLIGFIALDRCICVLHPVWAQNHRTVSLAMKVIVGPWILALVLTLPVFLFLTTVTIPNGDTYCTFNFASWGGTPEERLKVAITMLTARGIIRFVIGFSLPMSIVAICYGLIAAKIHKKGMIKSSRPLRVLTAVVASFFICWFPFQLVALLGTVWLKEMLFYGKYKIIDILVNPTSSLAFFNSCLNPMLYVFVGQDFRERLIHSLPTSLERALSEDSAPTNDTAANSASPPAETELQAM
In short: (§1)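 Gi-coupled activity is read as suppression of forskolin-stimulated cAMP (10 μM final for FPR1, 5 μM final for FPR2; IBMX 200 μM final) in recombinant CHO cells, 30 min incubation at rt, HTRF detection.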

[2] = biological target: T2, human FPR1 (Homo sapiens, UniProt P21462); assay: FPR1 cyclic adenosine monophosphate (cAMP) assay; assay type: cell-based; conditions: CHO cells overexpressing human FPR1; forskolin 10 μM; inhibition of cAMP production; HTRF; read-out: hFPR1 cAMP2 EC50
T2 sequence (P21462 1-350): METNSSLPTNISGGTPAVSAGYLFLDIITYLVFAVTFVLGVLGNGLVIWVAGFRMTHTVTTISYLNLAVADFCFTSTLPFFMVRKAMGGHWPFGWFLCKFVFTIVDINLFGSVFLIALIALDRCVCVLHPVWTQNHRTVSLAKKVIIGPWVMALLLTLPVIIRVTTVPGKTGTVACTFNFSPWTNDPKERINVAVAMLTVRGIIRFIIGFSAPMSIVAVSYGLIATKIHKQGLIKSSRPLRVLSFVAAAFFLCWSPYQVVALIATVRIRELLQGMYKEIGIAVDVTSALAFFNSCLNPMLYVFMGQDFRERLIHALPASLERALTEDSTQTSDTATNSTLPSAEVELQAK
In short: as §1

Row | SMILES | EC50 [1] [nM] | EC50 [2] [nM]
1 | COc1cc(F)c(-c2c(NC(=O)c3ccc(OC(F)F)cc3)c(=O)n(-c3cc(C)cc(OC4CCOC4)n3)n2C)c(F)c1 (stereo not shown) [Example 360, N-(5-(2,6-Difluoro-4-methoxyphenyl)-1-methyl-2-(4-methyl-6-((tetrahydrofuran-3-yl)oxy)pyridin-2-yl)-3-oxo-2,3-dihydro-1H-pyrazol-4-yl)-4-(difluoromethoxy)benzamide] | 4 | > 10000
2 | COc1cc(F)c(-c2c(NC(=O)c3ccc(OC(F)F)cc3)c(=O)n(-c3cc(C)cc(C4CCN(C)CC4)n3)n2C)c(F)c1 [Example 361] | 1 | > 10000
3 | COc1cc(F)c(-c2c(NC(=O)c3ccc(OC(F)F)cc3)c(=O)n(-c3cc(C)cc(C#N)n3)n2C)c(F)c1 [Example 362, N-(2-(6-Cyano-4-methylpyridin-2-yl)-5-(2,6-difluoro-4-methoxyphenyl)-1-methyl-3-oxo-2,3-dihydro-1H-pyrazol-4-yl)-4-(difluoromethoxy)benzamide] | 10 | > 10000
4 | COc1cc(C2CCN(C)CC2)nc(-n2c(=O)c(NC(=O)c3ccc(OC(F)F)cc3)c(-c3c(F)cc(OC)cc3F)n2C)c1 [Example 363, N-(5-(2,6-Difluoro-4-methoxyphenyl)-2-(4-methoxy-6-(1-methylpiperidin-4-yl)pyridin-2-yl)-1-methyl-3-oxo-2,3-dihydro-1H-pyrazol-4-yl)-4-(difluoromethoxy)benzamide] | 3 | > 10000
5 | COc1cc(N2CCOCC2)nc(-n2c(=O)c(NC(=O)c3ccc(OC(F)F)cc3)c(-c3c(F)cc(OC)cc3F)n2C)c1 [Example 364, N-(5-(2,6-Difluoro-4-methoxyphenyl)-2-(4-methoxy-6-morpholinopyridin-2-yl)-1-methyl-3-oxo-2,3-dihydro-1H-pyrazol-4-yl)-4-(difluoromethoxy)benzamide] | 62 | 2100
6 | COc1cc(C2CCN(S(C)(=O)=O)CC2)nc(-n2c(=O)c(NC(=O)c3ccc(OC(F)F)cc3)c(-c3c(F)cc(OC)cc3F)n2C)c1 [Example 366, N-(5-(2,6-Difluoro-4-methoxyphenyl)-2-(4-methoxy-6-(1-(methylsulfonyl)piperidin-4-yl)pyridin-2-yl)-1-methyl-3-oxo-2,3-dihydro-1H-pyrazol-4-yl)-4-(difluoromethoxy)benzamide] | 7 | > 10000
7 | COc1cc(C2CCN(CCO)CC2)nc(-n2c(=O)c(NC(=O)c3ccc(OC(F)F)cc3)c(-c3c(F)cc(OC)cc3F)n2C)c1 [Example 368, N-(5-(2,6-Difluoro-4-methoxyphenyl)-2-(6-(1-(2-hydroxyethyl)piperidin-4-yl)-4-methoxypyridin-2-yl)-1-methyl-3-oxo-2,3-dihydro-1H-pyrazol-4-yl)-4-(difluoromethoxy)benzamide] | 7 | > 10000
8 | COc1cc(F)c(-c2c(NC(=O)c3ccc(OC(F)F)cc3)c(=O)n(-c3nc(C(F)(F)F)ccc3OCC3CCOC3)n2C)c(F)c1 (stereo not shown) [Example 369, N-(5-(2,6-Difluoro-4-methoxyphenyl)-1-methyl-3-oxo-2-(3-((tetrahydrofuran-3-yl)methoxy)-6-(trifluoromethyl)pyridin-2-yl)-2,3-dihydro-1H-pyrazol-4-yl)-4-(difluoromethoxy)benzamide] | 5 | > 10000
9 | COc1cc(F)c(-c2c(NC(=O)c3ccc(OC(F)F)cc3)c(=O)n(-c3nc(C(F)(F)F)ccc3OCC3CCOC3)n2C)c(F)c1 (stereo not shown) [Example 370, N-(5-(2,6-Difluoro-4-methoxyphenyl)-1-methyl-3-oxo-2-(3-((tetrahydrofuran-3-yl)methoxy)-6-(trifluoromethyl)pyridin-2-yl)-2,3-dihydro-1H-pyrazol-4-yl)-4-(difluoromethoxy)benzamide] | 5 | > 10000
10 | COc1cc(F)c(-c2c(NC(=O)c3ccc(OC(F)F)cc3)c(=O)n(-c3nc(C(F)(F)F)ccc3OC)n2C)c(F)c1 [Example 371, N-(5-(2,6-Difluoro-4-methoxyphenyl)-2-(3-methoxy-6-(trifluoromethyl)pyridin-2-yl)-1-methyl-3-oxo-2,3-dihydro-1H-pyrazol-4-yl)-4-(difluoromethoxy)benzamide] | 6 | 240
11 | COc1cc(F)c(-c2c(NC(=O)c3ccc(OC(F)F)cc3)c(=O)n(-c3nc(C(F)(F)F)ccc3OCCO)n2C)c(F)c1 [Example 372, N-(5-(2,6-Difluoro-4-methoxyphenyl)-2-(3-(2-hydroxyethoxy)-6-(trifluoromethyl)pyridin-2-yl)-1-methyl-3-oxo-2,3-dihydro-1H-pyrazol-4-yl)-4-(difluoromethoxy)benzamide] | 6 | > 10000
12 | COc1cc(OCCC(C)(C)O)nc(-n2c(=O)c(NC(=O)c3ccc(OC(F)F)cc3)c(-c3c(F)cc(OC)cc3F)n2C)c1 [Example 379, N-(5-(2,6-Difluoro-4-methoxyphenyl)-2-(6-(3-hydroxy-3-methylbutoxy)-4-methoxypyridin-2-yl)-1-methyl-3-oxo-2,3-dihydro-1H-pyrazol-4-yl)-4-(difluoromethoxy)benzamide] | 7 | > 10000

Further lines, results first:

Row | EC50 [1] [nM] | EC50 [2] [nM] | SMILES
13 | 16 | > 10000 | COc1cc(F)c(-c2c(NC(=O)c3ccc(OC(F)F)cc3)c(=O)n(-c3nc(C(F)(F)F)ccc3OC[C@H](C)O)n2C)c(F)c1 [Example 373, (S)-N-(5-(2,6-Difluoro-4-methoxyphenyl)-2-(3-(2-hydroxypropoxy)-6-(trifluoromethyl)pyridin-2-yl)-1-methyl-3-oxo-2,3-dihydro-1H-pyrazol-4-yl)-4-(difluoromethoxy)benzamide]
14 | 22 | 320 | COc1cc(F)c(-c2c(NC(=O)c3ccc(OC(F)F)cc3)c(=O)n(-c3nc(C(F)(F)F)ccc3NCCO)n2C)c(F)c1 [Example 374, N-(5-(2,6-Difluoro-4-methoxyphenyl)-2-(3-((2-hydroxyethyl)amino)-6-(trifluoromethyl)pyridin-2-yl)-1-methyl-3-oxo-2,3-dihydro-1H-pyrazol-4-yl)-4-(difluoromethoxy)benzamide]
15 | 3 | > 10000 | COc1cc(F)c(-c2c(NC(=O)c3ccc(OC(F)F)cc3)c(=O)n(-c3nc(C(F)(F)F)ccc3N(C)CCO)n2C)c(F)c1 [Example 375, N-(5-(2,6-Difluoro-4-methoxyphenyl)-2-(3-((2-hydroxyethyl)(methyl)amino)-6-(trifluoromethyl)pyridin-2-yl)-1-methyl-3-oxo-2,3-dihydro-1H-pyrazol-4-yl)-4-(difluoromethoxy)benzamide]
16 | 5 | > 10000 | COc1cc(C)nc(-n2c(=O)c(NC(=O)c3ccc(OC(F)F)cc3)c(-c3c(F)cc(OC)cc3F)n2C)c1 [Example 376, N-(5-(2,6-Difluoro-4-methoxyphenyl)-2-(4-methoxy-6-methylpyridin-2-yl)-1-methyl-3-oxo-2,3-dihydro-1H-pyrazol-4-yl)-4-(difluoromethoxy)benzamide]
17 | 8 | 470 | COc1cc(F)c(-c2c(NC(=O)c3ccc(OC(F)F)cc3)c(=O)n(-c3cc(OC(C)C)cc(OCC(C)(C)O)n3)n2C)c(F)c1 [Example 377, N-(5-(2,6-Difluoro-4-methoxyphenyl)-2-(6-(2-hydroxy-2-methylpropoxy)-4-isopropoxypyridin-2-yl)-1-methyl-3-oxo-2,3-dihydro-1H-pyrazol-4-yl)-4-(difluoromethoxy)benzamide]
18 | 2 | 2300 | COc1cc(OCC(O)C(F)(F)F)nc(-n2c(=O)c(NC(=O)c3ccc(OC(F)F)cc3)c(-c3c(F)cc(OC)cc3F)n2C)c1 (stereo not shown) [Example 380, N-(5-(2,6-Difluoro-4-methoxyphenyl)-2-(4-methoxy-6-(3,3,3-trifluoro-2-hydroxypropoxy)pyridin-2-yl)-1-methyl-3-oxo-2,3-dihydro-1H-pyrazol-4-yl)-4-(difluoromethoxy)benzamide]
19 | 2 | 1900 | COc1cc(OC(CO)C(F)(F)F)nc(-n2c(=O)c(NC(=O)c3ccc(OC(F)F)cc3)c(-c3c(F)cc(OC)cc3F)n2C)c1 (stereo not shown) [Example 381, N-(5-(2,6-Difluoro-4-methoxyphenyl)-2-(4-methoxy-6-((1,1,1-trifluoro-3-hydroxypropan-2-yl)oxy)pyridin-2-yl)-1-methyl-3-oxo-2,3-dihydro-1H-pyrazol-4-yl)-4-(difluoromethoxy)benzamide]
20 | 8 | > 10000 | COCC(CO)Oc1cc(OC)cc(-n2c(=O)c(NC(=O)c3ccc(OC(F)F)cc3)c(-c3c(F)cc(OC)cc3F)n2C)n1 (stereo not shown) [Example 382, N-(5-(2,6-Difluoro-4-methoxyphenyl)-2-(6-((1-hydroxy-3-methoxypropan-2-yl)oxy)-4-methoxypyridin-2-yl)-1-methyl-3-oxo-2,3-dihydro-1H-pyrazol-4-yl)-4-(difluoromethoxy)benzamide]
